In ChEMBL document CHEMBL1147158, “Novel selective neuropeptide Y2 receptor PEGylated peptide agonists reduce food intake and body weight in mice” (J Med Chem, 2007):
Residues, ends and D or L forms follow the SMILES beside them. *: point of attachment. X1 = CSc1ncccc1C(=O)*

What was measured:
[1] = biological target: T1, Neuropeptide Y receptor type 2 (Homo sapiens, UniProt P49146); assay: Displacement of [125I]PYY from human NPY2
T1 sequence (P49146 whole entry): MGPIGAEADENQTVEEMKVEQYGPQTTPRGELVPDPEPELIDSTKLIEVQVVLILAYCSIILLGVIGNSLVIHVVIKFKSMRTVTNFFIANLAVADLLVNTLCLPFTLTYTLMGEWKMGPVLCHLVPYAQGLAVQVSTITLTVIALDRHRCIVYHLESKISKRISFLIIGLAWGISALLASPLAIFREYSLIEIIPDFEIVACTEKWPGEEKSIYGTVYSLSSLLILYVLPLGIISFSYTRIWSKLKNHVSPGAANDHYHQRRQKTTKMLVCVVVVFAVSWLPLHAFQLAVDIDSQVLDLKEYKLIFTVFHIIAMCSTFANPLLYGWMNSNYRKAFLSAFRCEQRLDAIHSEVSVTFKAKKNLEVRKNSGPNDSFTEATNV

[2] = biological target: T2, Neuropeptide Y receptor type 5 (Homo sapiens, UniProt Q15761); assay: Displacement of [125I]PYY from human NPY5
T2 sequence (Q15761 whole entry): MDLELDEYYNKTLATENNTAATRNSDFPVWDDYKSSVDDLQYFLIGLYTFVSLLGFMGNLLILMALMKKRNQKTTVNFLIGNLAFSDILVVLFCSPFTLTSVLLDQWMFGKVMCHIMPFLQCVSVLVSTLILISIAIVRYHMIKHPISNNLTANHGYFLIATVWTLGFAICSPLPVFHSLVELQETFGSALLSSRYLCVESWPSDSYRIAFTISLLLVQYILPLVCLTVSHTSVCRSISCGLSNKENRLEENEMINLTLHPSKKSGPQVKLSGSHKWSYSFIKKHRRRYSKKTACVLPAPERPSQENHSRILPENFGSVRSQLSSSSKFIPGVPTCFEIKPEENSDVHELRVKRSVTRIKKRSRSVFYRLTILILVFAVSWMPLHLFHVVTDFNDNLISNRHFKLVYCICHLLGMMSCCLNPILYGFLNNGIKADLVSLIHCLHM

[3] = biological target: T3, Neuropeptide Y receptor type 1 (Homo sapiens, UniProt P25929); assay: Displacement of [125I]PYY from human NPY1
T3 sequence (P25929 whole entry): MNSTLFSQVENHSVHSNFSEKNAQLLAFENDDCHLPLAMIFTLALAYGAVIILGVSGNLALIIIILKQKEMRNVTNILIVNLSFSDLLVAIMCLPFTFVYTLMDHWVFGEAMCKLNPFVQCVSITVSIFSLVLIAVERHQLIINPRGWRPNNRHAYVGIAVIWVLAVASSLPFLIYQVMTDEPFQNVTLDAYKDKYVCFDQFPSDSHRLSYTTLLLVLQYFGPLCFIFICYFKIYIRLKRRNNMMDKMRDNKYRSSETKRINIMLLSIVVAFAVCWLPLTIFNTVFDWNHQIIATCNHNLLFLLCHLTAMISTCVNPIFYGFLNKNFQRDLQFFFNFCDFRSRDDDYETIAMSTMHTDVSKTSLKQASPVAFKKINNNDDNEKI

[4] = biological target: T1, Neuropeptide Y receptor type 2; assay: Agonist activity at human NPY2 by [35S]GTPgammaS […] assay; assay type: functional

For `CSc1ncccc1C(=O)N[C@@H](CCCNC(=N)N)C(=O)N[C@@H](Cc1cnc[nH]1)C(=O)N[C@@H](Cc1ccc(O)cc1)C(=O)N[C@@H](CC(C)C)C(=O)N[C@@H](CC(N)=O)C(=O)N[C@@H](CC(C)C)C(=O)N[C@@H](CC(C)C)C(=O)N[C@H](C(=O)N[C@@H](CCCNC(=N)N)C(=O)N[C@@H](CCC(N)=O)C(=O)N[C@@H](CCCNC(=N)N)C(=O)N[C@@H](Cc1ccc(O)cc1)C(N)=O)[C@@H](C)O` (X1-RHYLNLLTRQRY-NH2), the Ki [1] was 0.011 µM (antagonist), the Ki [2] was > 1 µM and the Ki [3] was > 1 µM. The EC50 [4] was 0.004 µM (agonist).
